Reference: PubChem BioAssay (NCI)
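Results reflect a 48-hour exposure of cells in 96-well plates to compound at five concentrations. TGI: concentration producing complete growth inhibition.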

Key:
Test in all cases: NCI tumour cell line growth inhibition, 48 h
[1] = test system: CAKI-1 renal
[2] = test system: MCF7 breast
[3] = test system: MDA-N
[4] = test system: NCI-H522 lung
[5] = test system: DLD-1 colon
[6] = test system: DMS 114 small cell lung
[7] = test system: DMS 273 small cell lung
[8] = test system: KM20L2 colon
[9] = test system: LXFL 529 NSCLC
[10] = test system: M19-MEL melanoma
[11] = test system: XF 498 CNS

| Structure (SMILES) | TGI [1] [µM] | TGI [2] [µM] | TGI [3] [µM] | TGI [4] [µM] | other results |
| --- | --- | --- | --- | --- | --- |
| COc1ccc(/C=C/C(=O)N[C@@H]2C(=O)N3[C@@H]2SC(C)(C)[C@@H]3C(=O)O)cc1 | > 100 | > 100 | > 100 | > 100 |  |
| Oc1c(C2=N[C@H]3CCCC[C@@H]3N2)ccc2ccccc12 | > 100 | > 100 | > 100 | > 100 |  |
| O=C(OCC1OC(c2nn[nH]n2)C(OC(=O)c2ccccc2)C1OC(=O)c1ccccc1)c1ccccc1 (stereo not given) | > 100 | > 100 | > 100 |  |  |
| O=C(NC1=NC2C=CC([N+](=O)[O-])=CC2S1)C(=O)Nn1c(=S)[nH]c2ccccc2c1=O (stereo not given) | > 100 | > 100 | > 100 | > 100 |  |
| CCOC(=O)C1=c2[nH]c3cccc4cccc(c43)n2C=C(C(C)=O)C1CC(C)=O (stereo not given) | > 100 | > 100 | > 100 |  |  |
| COC(=O)C1(Cc2ccccc2)Cc2ccc3c(c2C1=O)CCC3 (stereo not given) | > 100 | > 100 | > 86.4 | 75.5 |  |
| Oc1ccc(Cn2c(-c3ccc(O)c(O)c3)nc3ccccc32)cc1O | 54.6 | > 100 | > 100 | 17.1 |  |
| ClC1=C(Cc2ccccc2)Cc2ccc3c(c21)CCC3 | 69.7 | 37.7 | > 100 | 39.5 |  |
| O=C(/C=C/c1ccco1)CC(=O)/C=C/c1ccco1 | 26.2 | 19.2 | 15 | 14.1 |  |
| COc1nc2sc3c(c2c(=O)n1CCCSSCCCn1c(OC)nc2sc4c(c2c1=O)CCCC4)CCCC3 | > 100 | > 100 | > 100 | > 100 |  |
| CC(NC(=O)OC(C)(C)C)C(=O)C(N)=O (stereo not given) |  | > 100 | > 100 |  |  |
| CCN(CC)CCCNc1nc2ccccc2c2[nH]c3ccc(OC)cc3c12 | 8.25 | 2.87 | 2.99 | 2.88 |  |
| CN(C)c1ccc(/C=C(\NC(=O)c2ccccc2)C2NC(Cc3c[nH]c4ccccc34)C(=O)O2)cc1 (stereo not given) | > 100 | > 100 | > 100 | 24.4 |  |
| CC(C)NC(=O)OCc1c(COC(=O)NC(C)C)n(C)c2c1ccc1ccccc12 | 1.94 | 1.88 | 4.22 | 0.298 |  |
| NCCCN1CCN(CC(=O)O)CCN(CCCN)CCN(CC(=O)O)CC1 | > 100 | > 100 | > 100 | > 84.2 |  |
| CC1(C)CN=C(Nc2cccc(C(F)(F)F)c2)S1 | > 100 | > 100 | > 100 | > 100 |  |
| O=C(Cc1ccc(Cl)c(Cl)c1)N(CCc1ccc(Cl)c(Cl)c1)CCN1CCCC1 | 3.1 | 3.27 | 3.15 | 3.3 |  |
| COc1cccc(/C=C2\CCCCCC2=O)c1 | > 100 |  | > 100 | > 100 |  |
| CCOC(=O)[C@@]12CCC(C1=O)[C@](C)(O)C[C@@H]2c1ccccc1 | > 100 |  | 16.8 | 52.1 |  |

| Structure (SMILES) | TGI [1] [µM] | TGI [2] [µM] | TGI [3] [µM] | TGI [4] [µM] | other results |
| --- | --- | --- | --- | --- | --- |
| O=C(CCCl)NNC1=NCCN1 |  | > 100 | > 100 | > 100 |  |
| CCOC(=O)NC(NC(C)CC)(C(F)(F)F)C(F)(F)F (stereo not given) | > 100 | > 100 | > 100 | > 100 |  |
| COc1ccc2oc(C(=O)N3CC(CCl)c4ccc([N+](=O)[O-])cc43)cc2c1 (stereo not given) | 45.6 |  |  |  |  |
| FC(F)(Sc1ccccc1)c1nc2ccccc2o1 | > 100 | > 100 | > 100 | > 100 |  |
| O=c1ccn2n1CCCCC2 | > 100 |  | > 100 | > 100 |  |
| CCCCCCCCCCCCCCCCCCOCC(CO[P+](=O)O)OCCCCCCCCCCCCCCCCCC (stereo not given) | > 50 | > 50 | > 50 | > 50 |  |
| O=[N+]([O-])c1cc(-[n+]2cc([O-])on2)ccc1F | 4.2 | 29.4 | 30.7 | 22.2 |  |
| COc1ccccc1Cn1nc(OC)c2cc([N+](=O)[O-])ccc21 | > 53.6 | > 100 | > 100 | > 81.3 |  |
| CC(=O)OCC1OC(n2c(N)c(C#N)c(-c3ccc(C)cc3)c(C#N)c2=S)C(OC(C)=O)C(OC(C)=O)C1OC(C)=O (stereo not given) | > 100 | 51.3 | 30.9 |  |  |
| O=C(OC(=C(c1ccccc1)c1ccccc1)N1CCCC1=S)C(c1ccccc1)c1ccccc1 | > 10 | > 10 |  |  |  |
| COC(=O)C(Cc1ccccc1)OC(=O)C(N)CC(=O)O (stereo not given) | > 100 | > 100 | > 100 | > 100 |  |
| OC1CN2CCS[C@H]2C(O)C1O (stereo not given in full) | > 100 |  |  | > 100 |  |
| O=C(CCc1cccc(O)c1)NCCc1ccc(O)cc1 | > 100 | > 100 | > 100 | > 100 |  |
| CN(C)c1nc(NN)c2c(-c3ccccc3)c(-c3ccccc3)oc2n1 | > 100 | > 100 |  | > 100 |  |
| COP1(=O)Oc2ccccc2C(=O)C(C(F)(F)F)(C(F)(F)F)O1 (stereo not given) | > 100 |  |  | > 100 | TGI [5]: > 100 µM; TGI [6]: > 100 µM; TGI [7]: > 100 µM; TGI [8]: > 100 µM; TGI [9]: > 100 µM; TGI [10]: > 100 µM; TGI [11]: > 100 µM |
| CN(C)c1nc(-c2ccccc2)c(C(=O)c2c[nH]c3ccccc23)s1 | > 100 | > 100 | 20.2 | 10.4 |  |
| Cn1c2ccccc2c(=NNc2ccccc2C(=O)O)c2ccccc21 | 91.2 | 30.5 | 46.4 | 33.3 |  |
| O=C1C=C(NCCc2cc(Br)c(O)c(Br)c2)C(=O)c2ncccc21 | 17.5 | 5.29 | 1.23 | 6.1 |  |
| c1cncc(-c2ncc3cccnc3n2)c1 | > 100 | > 100 | > 100 | > 100 |  |
